Measurements from the supplement of paper PMC10307832.

How the values were obtained:
Assay in all cases: relative viability (nuclei count vs DMSO), 5 days (fraction); higher = more cells survive
[1] = compound: C1=CC=C(C(=C1)C2=CC=C(C=C2)C3=CSC4=C3C(=C(C(=O)N4)C#N)O)O + CS(=O)(=O)CCNCc1ccc(-c2ccc3ncnc(Nc4ccc(OCc5cccc(F)c5)c(Cl)c4)c3c2)o1 [Lapatinib] (partner 2 µM)
Outline: (§1)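 Medians of duplicate plates are given as relative viability. That measure is the nuclei count in treated wells divided by the count in vehicle wells. Counts were taken on 4× images of lung cancer cell lines in 1536-well plates, 5 days after pin-tool dosing the day after seeding with one drug alone or a fixed anchor-drug dose plus five library-drug doses (not always all listed) in √10 steps.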

TGX 221 + Trametinib = compound: CC1=CN2C(=O)C=C(N=C2C(=C1)C(C)NC3=CC=CC=C3)N4CCOCC4 [TGX 221] + CC(=O)Nc1cccc(-n2c(=O)n(C3CC3)c(=O)c3c(Nc4ccc(I)cc4F)n(C)c(=O)c(C)c32)c1 [Trametinib] (partner 0.02 µM)
Outline: as §1

TGX 221 + Lapatinib = compound: CC1=CN2C(=O)C=C(N=C2C(=C1)C(C)NC3=CC=CC=C3)N4CCOCC4 [TGX 221] + CS(=O)(=O)CCNCc1ccc(-c2ccc3ncnc(Nc4ccc(OCc5cccc(F)c5)c(Cl)c4)c3c2)o1 [Lapatinib] (partner 2 µM)
Outline: as §1

TGX 221 + Dasatinib = compound: CC1=CN2C(=O)C=C(N=C2C(=C1)C(C)NC3=CC=CC=C3)N4CCOCC4 [TGX 221] + Cc1nc(Nc2ncc(C(=O)Nc3c(C)cccc3Cl)s2)cc(N2CCN(CCO)CC2)n1 [Dasatinib] (partner 0.075 µM)
Outline: as §1

Cell Line | relative viability ([1]; first compound 0.253 µM) | relative viability ([1]; first compound 0.8 µM) | relative viability ([1]; first compound 2.53 µM) | relative viability ([1]; first compound 8 µM) | relative viability (TGX 221 + Trametinib; first compound 0.08 µM) | relative viability (TGX 221 + Trametinib; first compound 0.253 µM) | relative viability (TGX 221 + Trametinib; first compound 0.8 µM) | relative viability (TGX 221 + Trametinib; first compound 2.53 µM) | relative viability (TGX 221 + Trametinib; first compound 8 µM) | relative viability (TGX 221 + Lapatinib; first compound 0.08 µM) | relative viability (TGX 221 + Lapatinib; first compound 0.253 µM) | relative viability (TGX 221 + Lapatinib; first compound 0.8 µM) | relative viability (TGX 221 + Lapatinib; first compound 2.53 µM) | relative viability (TGX 221 + Lapatinib; first compound 8 µM) | relative viability (TGX 221 + Dasatinib; first compound 0.08 µM) | relative viability (TGX 221 + Dasatinib; first compound 0.253 µM) | relative viability (TGX 221 + Dasatinib; first compound 0.8 µM) | relative viability (TGX 221 + Dasatinib; first compound 2.53 µM) | relative viability (TGX 221 + Dasatinib; first compound 8 µM) | relative viability ([1]; first compound 0.08 µM)
NCI-H1395 | 0.87 | 1.05 | 0.974 | 0.965 | 0.93 | 0.935 | 0.831 | 0.767 | 0.761 | 0.926 | 0.862 | 0.751 | 0.804 | 0.714 | 0.399 | 0.383 | 0.406 | 0.348 | 0.362 | –
NCI-H2170 | 0.276 | 0.278 | 0.279 | 0.286 | 0.883 | 0.877 | 0.949 | 0.977 | 0.892 | 0.285 | 0.26 | 0.264 | 0.276 | 0.265 | 0.542 | 0.48 | 0.527 | 0.519 | 0.507 | 0.267
NCI-H647 | 1.2 | 1.11 | 1.16 | 0.871 | 0.436 | 0.375 | 0.355 | 0.247 | 0.297 | 0.95 | 0.869 | 0.955 | 0.746 | 0.61 | 0.189 | 0.145 | 0.15 | 0.163 | 0.136 | 0.447
CAL-12T | 0.848 | 0.604 | 0.617 | 0.599 | 0.272 | 0.299 | 0.316 | 0.33 | 0.325 | – | 0.533 | 0.576 | – | 0.621 | 0.365 | 0.34 | 0.383 | 0.31 | 0.373 | –
201T | 1.03 | 1.01 | 0.849 | 1.12 | 0.704 | 0.728 | 0.703 | 0.703 | 0.697 | – | 1.05 | 0.98 | 1.02 | 0.943 | 0.596 | 0.584 | 0.54 | 0.508 | 0.541 | 0.979
HCC-366 | 0.948 | 1.24 | 1.01 | 1.01 | 0.288 | 0.325 | 0.311 | 0.235 | 0.239 | 1.02 | 1 | 0.875 | 1.04 | 1.04 | 0.693 | 0.606 | 0.639 | 0.586 | 0.55 | 1.24
NCI-H1944 | 0.853 | 0.883 | 0.67 | 0.788 | – | 0.367 | 0.327 | 0.401 | 0.32 | 0.705 | 0.784 | 0.777 | 0.836 | 0.714 | 0.225 | 0.202 | 0.228 | 0.206 | 0.181 | 0.69
NCI-H1651 | 0.799 | 0.78 | 0.821 | 0.683 | 0.809 | 0.84 | 0.756 | 0.764 | 0.73 | 0.777 | 0.644 | 0.758 | 0.804 | 0.599 | 0.505 | 0.371 | 0.464 | 0.345 | 0.362 | 0.697
LCLC-97TM1 | 1.6 | 1.05 | 0.68 | 0.92 | 0.178 | 0.172 | 0.22 | 0.187 | 0.185 | 1.12 | 0.726 | 1.12 | 1.05 | 1.02 | 0.902 | 0.73 | 0.779 | 0.742 | 0.791 | 1.01
NCI-H1703 | 1.2 | 0.945 | 1.16 | 0.939 | – | – | – | – | – | 1.02 | 0.974 | 0.95 | 0.859 | 0.757 | – | – | – | – | – | 0.896
NCI-H441 | – | – | – | – | 0.416 | 0.473 | 0.45 | 0.371 | 0.354 | – | – | – | – | – | 0.534 | 0.597 | 0.59 | 0.609 | 0.661 | –
SW 900 | – | – | – | – | – | 0.613 | 0.871 | 0.575 | 0.5 | – | – | – | – | – | 0.461 | 0.444 | 0.383 | 0.39 | 0.254 | –
HCC-44 | 1.07 | 0.928 | 1.02 | 0.993 | 1.07 | 1.06 | 1.14 | 1.13 | 0.945 | 1 | 0.982 | 0.975 | 0.984 | 1.05 | – | – | – | – | – | 0.863
NCI-H1563 | 0.868 | 1.01 | 0.881 | 0.989 | – | – | – | – | – | 0.922 | 0.871 | 0.791 | 0.851 | 0.796 | 0.427 | 0.457 | 0.434 | 0.46 | 0.428 | 0.715
Calu-6 | 1.03 | 1.21 | 1.27 | 1.03 | – | – | – | – | – | 0.929 | 0.916 | 1.04 | 1.17 | 0.962 | – | – | – | – | – | 1.03
NCI-H1623 | – | – | – | – | – | – | – | – | – | – | – | – | – | – | 0.538 | 0.564 | 0.599 | 0.541 | 0.536 | –
EBC-1 | 0.226 | 0.223 | 0.209 | 0.173 | – | – | – | – | – | 0.203 | 0.212 | 0.203 | 0.226 | 0.234 | – | – | – | – | – | 0.265
NCI-H522 | – | – | – | – | 0.658 | 0.822 | 0.719 | 0.623 | 0.661 | – | – | – | – | – | 0.834 | 0.81 | 0.851 | 0.843 | 0.826 | –
NCI-H1648 | – | – | – | – | – | 0.403 | 0.569 | 0.435 | 0.471 | – | – | – | – | – | – | – | – | – | – | –
A549 | 0.912 | 1.06 | 0.971 | 0.918 | – | – | – | – | – | 0.939 | 0.914 | 0.966 | 1.04 | 0.748 | – | – | – | – | – | 1.01
IA-LM | 0.413 | 0.599 | 0.952 | 0.537 | – | – | – | – | – | 0.783 | 0.797 | 0.979 | 1.01 | 0.612 | – | – | – | – | – | 0.538
ABC-1 | 1.49 | 1.42 | 1.13 | 0.997 | – | – | – | – | – | 0.987 | 1.14 | 1.12 | 1.24 | 1.09 | 0.531 | 0.569 | 0.682 | 0.472 | 0.577 | 1.52
ChaGo-K-1 | – | – | – | – | 0.952 | 0.871 | 0.857 | 0.922 | 0.843 | – | – | – | – | – | 0.548 | 0.536 | 0.615 | 0.494 | 0.575 | –
